Measured values reported in PubChem BioAssay AID1919005 (Molecular Pharmacology Branch, DTP, NCI, 2023).
Values joined by “and” are separate entries in the source; they are usually repeats but may differ in a detail not shown here. Equal entries are not always repeated.

Tested on: 855422-203-R-J1-PDC complex spheroid growth
Assay: Anticancer human tumor 855422-203-R-J1-PDC patient-derived bladder carcinoma cell line growth inhibition [AhR]
Settings: for viability, T/C: stronger effect = lower value
Excerpt: Multicellular complex tumor spheroid response to aryl hydrocarbon receptor antagonists in combination with a variety of drugs and investigational agents in selected tumor cell lines
The current study was undertaken to assess response to aryl hydrocarbon receptor antagonists in combination with standard-of-care drugs and investigational agents in solid tumor complex spheroid models. Complex spheroids include a stromal component modeled by human endothelial cells (HUVEC) and fibroblasts modeled by human mesenchymal stem cells (MSCs). The concentration ranges selected for each drug and investigational agent were based upon clinically achievable concentrations if the clinical Cmax of the agent was known.
Compounds. The drugs and investigational agents: BAY 2416964 (NSC825713), GNF351 (NSC835774), CH-223191 (NSC835775), CPI-455 (NSC825282), aza-TdCyd (NSC777586), decitabine (NSC127716), belinostat (NSC758774), entinostat (NSC756642), pevonedistat (NSC761192), tazemetostat (NSC777109), talazoparib (NSC765396), olaparib (NSC753686), selinexor (NSC780203), nedisertib (M3814, NSC802822), bortezomib (NSC756655), venetoclax (NSC766270), doxorubicin (NSC123127), elimusertib (BAY189344, NSC800525), ceralasertib (AZD6738, NSC777638), TAK-243 (NSC785004), alisertib (NSC759677), etoposide (NSC141540), topotecan (NSC609699), eribulin (NSC707389), gemcitabine (NSC613327), carboplatin (NSC241240), cisplatin (NSC119875), and SN-38 (NSC673596) were obtained from the National Cancer Institute (NCI) Developmental Therapeutics Program Chemical Repository (32). The FDA-approved anticancer drug set is available from the Developmental Therapeutics Program at https://dtp.cancer.gov/organization/dscb/obtaining/available plates.htm. […] The stock solutions were prepared in dimethyl sulfoxide (DMSO, Sigma-Aldrich, St. Louis, MO, cat. D2650), except for the platinum compounds which were prepared in saline (Quality Biological, Gaithersburg, MD, cat. 114-055-101), at 800-fold the tested concentration and stored at -70 degrees C prior to their use. All drugs and investigational agents were tested over a range starting from a high concentration at or near the clinical Cmax and decreasing in half-log increments. If the clinical Cmax for an agent had not been determined, the highest concentration tested was 10 microM (Table 1).
Cell Culture. All cells were maintained in an incubator at 37 degrees C and 5% CO2 with 95% humidity. The PDC lines were cultured according to standard operating procedures established by the NCI PDMR (https://pdmr.cancer.gov). Briefly, all PDCs were thawed and cultured in Matrigel-coated flasks prepared with a working solution of 1X Ham's F-12 nutrient mix, without supplementation (Invitrogen, Waltham, MA, cat. 11765054), 100 U/mL penicillin-streptomycin (Invitrogen, cat. 15140122), and 2.5% Matrigel (Corning Inc., Corning, NY, cat. 354248) for the first three passages. All PDCs were cultured in complete DMEM/F-12 media containing advanced DMEM/F-12 (Invitrogen, cat. 12634028), 4.9% defined fetal bovine serum, heat inactivated (HyClone Laboratories Inc., Logan, UT, cat. SH30070.03HI), 389 ng/mL hydrocortisone (Sigma-Aldrich, cat. H4001), 9.7 ng/mL human EGF recombinant protein (Invitrogen, cat. PHG0313), 23.4 microg/mL adenine (Sigma-Aldrich, cat. A2786), 97.3 U/mL penicillin-streptomycin (Invitrogen, cat. 15140122), 1.9 mM L-glutamine (Invitrogen, cat. 25030081), and 9.7 microM Y-27632 dihydrochloride (Tocris Bioscience, Bristol, United Kingdom, cat. 1254). The PDCs were cultured in complete DMEM/F12 media without 10 microM Y-27632 dihydrochloride for at least two passages prior to the screen. The established cell lines NCI-H1341 and […] were cultured in DMEM/F-12, HEPES (Invitrogen, cat. 11330032), 5% defined fetal bovine serum (HyClone Laboratories Inc., cat. SH30070.03), ITS premix universal culture supplement [insulin (5 microg/mL), transferrin (5 microg/mL), and selenious acid (5 ng/mL)] […]

[1] = curve of first compound, second compound 0.1 µM
[2] = curve of first compound, second compound 0.316 µM
[3] = curve of first compound, second compound 1 µM
[4] = curve of first compound, second compound 3.16 µM
[5] = curve of first compound, second compound 10 µM
[6] = second compound 0.1 µM, first compound 0.00949 µM
[7] = second compound 0.1 µM, first compound 0.03 µM
[8] = second compound 0.1 µM, first compound 0.0949 µM
[9] = second compound 0.1 µM, first compound 0.3 µM
[10] = second compound 0.316 µM, first compound 0.00949 µM
[11] = second compound 0.316 µM, first compound 0.03 µM
[12] = second compound 0.316 µM, first compound 0.0949 µM
[13] = second compound 0.316 µM, first compound 0.3 µM
[14] = second compound 1 µM, first compound 0.00949 µM
[15] = second compound 1 µM, first compound 0.03 µM
[16] = second compound 1 µM, first compound 0.0949 µM
[17] = second compound 1 µM, first compound 0.3 µM
[18] = second compound 3.16 µM, first compound 0.00949 µM
[19] = second compound 3.16 µM, first compound 0.03 µM
[20] = second compound 3.16 µM, first compound 0.0949 µM
[21] = second compound 3.16 µM, first compound 0.3 µM
[22] = second compound 10 µM, first compound 0.00949 µM
[23] = second compound 10 µM, first compound 0.03 µM
[24] = second compound 10 µM, first compound 0.0949 µM
[25] = second compound 10 µM, first compound 0.3 µM
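Note: spheroids exposed to agents for seven days before readout.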
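Throughout, for viability, T/C: percent of DMSO vehicle control luminescence viability.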

Row | SMILES | IC50 [1] | IC50 [2] | IC50 [3] | IC50 [4] | IC50 [5] | viability, T/C [6] | viability, T/C [7] | viability, T/C [8] | viability, T/C [9] | viability, T/C [10] | viability, T/C [11] | viability, T/C [12] | viability, T/C [13] | viability, T/C [14] | viability, T/C [15] | viability, T/C [16] | viability, T/C [17] | viability, T/C [18] | viability, T/C [19] | viability, T/C [20] | other results
1 | CCN(c1cc(-c2ccc(CN3CCOCC3)cc2)cc(C(=O)NCc2c(C)cc(C)[nH]c2=O)c1C)C1CCOCC1 + Cc1cncc(-c2nc(NCCc3c[nH]c4ccccc34)c3ncn(C(C)C)c3n2)c1 | > 3000 nM | > 3000 nM | > 3000 nM | > 3000 nM | < 9.49 nM | 90.5% | 84.7% | 92% | 83.1% | 88.9% | 78.3% | 86.6% | 74.2% | 89.4% | 85.7% | 74.8% | 75% | 74.8% | 85.5% | 64.1% | viability, T/C (second compound 0.1 µM, first compound 0.949 µM): 85.3%; viability, T/C (second compound 0.1 µM, first compound 3 µM): 70.7%; viability, T/C (second compound 0.316 µM, first compound 0.949 µM): 76.2%; viability, T/C (second compound 0.316 µM, first compound 3 µM): 75.7%; viability, T/C (second compound 1 µM, first compound 0.949 µM): 76.1%; viability, T/C (second compound 1 µM, first compound 3 µM): 73.7%; viability, T/C [21]: 51.7%; viability, T/C (second compound 3.16 µM, first compound 0.949 µM): 69%; viability, T/C (second compound 3.16 µM, first compound 3 µM): 66.3%; viability, T/C [22]: 24.9%; viability, T/C [23]: 32.4%; viability, T/C [24]: 15.5%; viability, T/C [25]: 1.7%; viability, T/C (second compound 10 µM, first compound 0.949 µM): 4.26%; viability, T/C (second compound 10 µM, first compound 3 µM): 0.96%
2 | CC(C)CC(NC(=O)C(Cc1ccccc1)NC(=O)c1cnccn1)B(O)O (configuration not stated) + Cc1cncc(-c2nc(NCCc3c[nH]c4ccccc34)c3ncn(C(C)C)c3n2)c1 | 2.14 nM | 2.02 nM | 1.68 nM | 1.29 nM | < 0.949 nM | 1.54% | 0.03% | 0.02% | 0.1% | 2.79% | 0.01% | 0.01% | 0.09% | 1.41% | 0.02% | 0.03% | 1.34% | 0.97% | 2.11% | 0.02% | viability, T/C (second compound 0.1 µM, first compound 0.000949 µM): 93%; viability, T/C (second compound 0.1 µM, first compound 0.003 µM): 32.3%; viability, T/C (second compound 0.316 µM, first compound 0.000949 µM): 103%; viability, T/C (second compound 0.316 µM, first compound 0.003 µM): 22.5%; viability, T/C (second compound 1 µM, first compound 0.000949 µM): 90.6%; viability, T/C (second compound 1 µM, first compound 0.003 µM): 9.23%; viability, T/C (second compound 3.16 µM, first compound 0.000949 µM): 66.5%; viability, T/C (second compound 3.16 µM, first compound 0.003 µM): 4.56%; viability, T/C [21]: 0.68%; viability, T/C (second compound 10 µM, first compound 0.000949 µM): 4.11%; viability, T/C (second compound 10 µM, first compound 0.003 µM): 0.69%; viability, T/C [22]: 0.08%; viability, T/C [23]: 1.49%; viability, T/C [24]: 0.1%; viability, T/C [25]: 0.73%
3 | CC1COCCN1c1cc(-c2ccnn2C)c2ccnc(-c3ccn[nH]3)c2n1 (configuration not stated) | – | – | – | – | – | – | – | – | – | – | – | – | – | – | – | – | – | – | – | – | viability, T/C (compound 0.00316 µM): 99.8% and 104% and 109%; viability, T/C (compound 0.01 µM): 100% and 108% and 107%; viability, T/C (compound 0.0316 µM): 106% and 101% and 96.2%; viability, T/C (compound 0.1 µM): 98.3% and 103% and 91.9%; viability, T/C (compound 0.316 µM): 36.1% and 71.9% and 59.7%; viability, T/C (compound 1 µM): 12.2% and 25.8% and 17.1%; IC50 (curve of compound): 244 nM and 546 nM and 421 nM
